Measurements from US6043212A, “Recombinant C140 receptor, its agonists and antagonists, and nucleic acids encoding the receptor” (COR Therapeutics, Inc., priority 1995, dated 2000).
Numbering of substitutions follows the chain as printed. Peptide text beside a SMILES is read from it.

Tests used:
[1] = Hypotensive activity: arterial pressure after injection into rat femoral vein; assay type: in vivo; conditions: FIG. 7
Experimental: The C140 agonist SLIGRL (SEQ ID NO: 23) was injected in 0.2 ml buffer at various concentrations into rat femoral vein and the arterial pressure was monitored.

[2] = molecular target: T1, mutant C140 receptor 35His (serine-35 replaced with histidine) (Mus musculus, UniProt P55086, S39H); assay: 45Ca release by Xenopus oocytes expressing mutant C140 receptor 35His; assay type: cell-based; conditions: 35His receptor
T1 construct: Site-directed mutagenesis was employed to construct mutant receptors in the pSG-5; expressed in transfected cells; host or cells: Xenopus laevis oocytes injected with capped cRNA
T1 sequence (P55086 32-399 S39H limits assumed): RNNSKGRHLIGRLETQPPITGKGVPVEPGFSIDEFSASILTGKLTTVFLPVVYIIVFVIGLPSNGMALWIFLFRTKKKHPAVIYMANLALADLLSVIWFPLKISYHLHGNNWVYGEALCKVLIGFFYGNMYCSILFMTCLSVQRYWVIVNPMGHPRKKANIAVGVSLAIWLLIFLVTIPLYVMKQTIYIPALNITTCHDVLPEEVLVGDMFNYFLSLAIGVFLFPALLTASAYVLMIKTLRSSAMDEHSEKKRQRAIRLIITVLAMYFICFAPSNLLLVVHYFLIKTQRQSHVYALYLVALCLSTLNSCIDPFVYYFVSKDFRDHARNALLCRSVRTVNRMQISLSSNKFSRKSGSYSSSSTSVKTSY
Source text: (§1) Both native and mutant C140 receptors were produced in oocytes and activated with a peptide mimicking the new amino-terminus", or by the proteolytic enzyme trypsin (which cleaves the extracellular region). Native receptors were produced by cloning the coding region of the receptor gene, using the polymerase chain reaction, into the expression vector pSG-5 (Green, S. et al., Nucleic Acid Res (1988) 16:369). The orientation and integrity of the cloned coding region was verified by determining the nucleotide sequence with the Sanger chain-termination method. Site-directed mutagenesis was employed to construct mutant receptors in the pSG-5. […]
(§2) Oocytes from Xenopus laevis were harvested and prepared using published techniques (Coleman, A., in Hames, B. D., and Higgins, S. J., eds, Transcription and Translation: A Practical Approach, IRL Press, pp. 271-302; Williams, J. A., et al. Proc Natl Acad Sci USA (1988) 85:4939-4943]. To remove follicular cells, oocytes were incubated for 1.5 h with shaking in calcium-free Barth's containing 2 mg/ml each of collagenase 1A and hyaluronidase 1S. The oocytes were then washed five times in regular Barth's and incubated at 18° C. in Barth's medium containing 100 U/ml penicillin, 100 μg/ml streptomycin, and 2.5 mM sodium pyruvate. […] The harvested medium was analyzed by scintillation counting. […]

[3] = molecular target: T2, mutant C140 receptor 35Pro (serine-35 replaced with proline) (Mus musculus, UniProt P55086, S39P); assay: 45Ca release by Xenopus oocytes expressing mutant C140 receptor 35Pro; assay type: cell-based; conditions: 35Pro receptor
T2 construct: Site-directed mutagenesis was employed to construct mutant receptors in the pSG-5; expressed in transfected cells; host or cells: Xenopus laevis oocytes injected with capped cRNA
T2 sequence (P55086 32-399 S39P limits assumed): T1 sequence (P55086 32-399 S39H limits assumed) with H8P
Source text: as §1, §2

C140 receptor = molecular target: T3, C140 receptor (Mus musculus, UniProt P55086); assay: Activation of frog oocytes injected with C140 receptor cRNA by proteases; assay type: cell-based; conditions: FIG. 9c
T3 construct: expressed in transfected cells; host or cells: frog oocytes injected with C140 receptor cRNA
T3 sequence (P55086 26-399): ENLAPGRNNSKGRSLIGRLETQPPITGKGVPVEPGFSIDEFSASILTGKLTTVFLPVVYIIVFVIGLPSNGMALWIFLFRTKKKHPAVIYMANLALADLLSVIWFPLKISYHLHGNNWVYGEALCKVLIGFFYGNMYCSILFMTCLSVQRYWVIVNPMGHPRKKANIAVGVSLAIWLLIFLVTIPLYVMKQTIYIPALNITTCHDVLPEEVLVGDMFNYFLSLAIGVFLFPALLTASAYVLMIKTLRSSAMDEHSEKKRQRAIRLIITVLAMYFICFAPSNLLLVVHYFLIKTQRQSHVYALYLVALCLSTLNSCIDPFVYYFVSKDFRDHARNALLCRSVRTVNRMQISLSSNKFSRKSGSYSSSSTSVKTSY
Source text: FIGS. 9a and 9b show the ability of plasmin and kallikrein respectively to activate oocytes injected with C140 cRNA (open circles) or water (crosses) as control.

[4] = peptide at 100 μM, same oocytes after trypsin stimulation
[5] = trypsin at 300 pM, increase compared to water-injected oocytes

Molecule | Effect on arterial blood pressure ([1]; 0.2 ml buffer at 0.1 mM into femoral vein) | Effect on arterial blood pressure ([1]; 0.2 ml buffer at 1 mM into femoral vein) | Fold increase in 45Ca [2, 4] | Fold increase in 45Ca [3, 4] | Fold increase in 45Ca [2, 5] | Fold increase in 45Ca [3, 5] | Activation of oocytes injected with C140 receptor cRNA versus substance K receptor cRNA (C140 receptor)
CC[C@H](C)[C@H](NC(=O)[C@H](CC(C)C)NC(=O)[C@@H](N)CO)C(=O)NCC(=O)N[C@@H](CCCNC(=N)N)C(=O)N[C@@H](CC(C)C)C(=O)O [SLIGRL] (H-SLIGRL-OH) | appreciable decrease in blood pressure | larger decreases | 23 fold | 23 fold |  |  | 
trypsin |  |  |  |  | 0 fold | 0 fold | differential effect
